From ChEMBL document CHEMBL5257102, “Enzymatic transformation of esculetin as a potent class of α-glucosidase inhibitors” (Bioorg Med Chem Lett, 2023)

What was measured:
Type in all cases: protein assay
[1] = molecular target: T1, Alpha glucosidase (Homo sapiens, UniProt O43451+P10253+P14410+Q2M2H8); assay: Inhibition of Alpha-glucosidase (unknown origin)
[2] = molecular target: T1, Alpha glucosidase; assay: Competitive inhibition of Alpha-glucosidase (unknown origin) by Lineweaver-Burk plot analysis
[3] = molecular target: T1, Alpha glucosidase; assay: Inhibition of Alpha-glucosidase (unknown origin) by Lineweaver-Burk plot analysis; settings: dose 4.0 µM

| SMILES | IC50 [1] | Ki [2] | inhibition [3] |
| --- | --- | --- | --- |
| O=c1ccc2c(Oc3cc4oc(=O)ccc4c(-c4c(O)c(O)c(-c5c(O)c(O)c(-c6c(O)c(O)cc7oc(=O)ccc67)c6ccc(=O)oc56)c5ccc(=O)oc45)c3O)c(O)c(O)cc2o1 | 0.7 µM | 0.2 µM | Dose-Dependent Effect |
| O=c1ccc2c(-c3c(O)c(O)cc4ccc(=O)oc34)c(O)c(O)cc2o1 | 17.6 µM | 10.1 µM |  |
| O=c1ccc2c(-c3c(O)c(O)c(-c4c(O)c(O)c(-c5c(O)c(O)cc6oc(=O)ccc56)c5oc(=O)ccc45)c4oc(=O)ccc34)c(O)c(O)cc2o1 | 2.3 µM | 0.9 µM |  |
| O=c1ccc2cc(O)c(O)cc2o1 [ESCULETIN] | > 500 µM |  |  |
| O=c1ccc2c(-c3c(O)c(O)c(-c4c(O)c(O)cc5ccc(=O)oc45)c4oc(=O)ccc34)c(O)c(O)cc2o1 | 4.2 µM |  |  |

Second part, the compound after the results:

| IC50 [1] | Ki [2] | inhibition [3] | SMILES |
| --- | --- | --- | --- |
| 6.4 µM | 3.4 µM |  | O=c1ccc2cc(O)c(O)c(-c3c(O)c(O)cc4ccc(=O)oc34)c2o1 |
| 4.7 µM | 1.9 µM |  | O=c1ccc2c(-c3c(O)c(O)c(-c4c(O)c(O)cc5oc(=O)ccc45)c4oc(=O)ccc34)c(O)c(O)cc2o1 |
